Structures are written as SMILES.

In the test the target is T1, human LPA1 (Homo sapiens, UniProt Q92633).
T1 construct: expressed in transfected cells; host or cells: Chinese hamster ovary (CHO) cells
T1 sequence (Q92633 whole entry): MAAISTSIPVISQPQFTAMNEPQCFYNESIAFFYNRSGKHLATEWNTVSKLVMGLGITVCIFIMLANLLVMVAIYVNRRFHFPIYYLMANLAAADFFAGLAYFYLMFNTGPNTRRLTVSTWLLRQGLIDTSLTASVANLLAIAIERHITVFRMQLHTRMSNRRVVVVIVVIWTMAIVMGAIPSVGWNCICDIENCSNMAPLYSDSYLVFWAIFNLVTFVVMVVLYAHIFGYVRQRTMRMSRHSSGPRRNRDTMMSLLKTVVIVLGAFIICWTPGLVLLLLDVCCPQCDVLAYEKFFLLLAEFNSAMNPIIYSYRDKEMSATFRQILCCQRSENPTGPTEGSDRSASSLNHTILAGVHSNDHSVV
In words: LPA1 functional antagonist assay (LPA-induced calcium flux). The format is cell-based. The conditions noted are these: CHO cells overexpressing human LPA1; inhibition of calcium flux induced by 10 nM LPA; read-out: hLPA1 IC50. The protocol:
The effectiveness of compounds of the present invention as LPA1 inhibitors can be determined in an LPA1 functional antagonist assay as follows:
Chinese hamster ovary cells overexpressing human LPA1 were plated overnight (15,000 cells/well) in poly-D-lysine coated 384-well microplates (Greiner bio-one, Cat #781946) in DMEM/F12 medium (Gibco, Cat #11039). Following overnight culture, cells were loaded with calcium indicator dye (AAT Bioquest Inc, Cat #34601) for 30 minutes at 37° C. The cells were then equilibrated to room temperature for 30 minutes before the assay. Test compounds solubilized in DMSO were transferred to 384 well non-binding surface plates (Corning, Cat #3575) using the Labcyte Echo acoustic dispense and diluted with assay buffer [1×HBSS with calcium/magnesium (Gibco Cat #14025-092), 20 mM HEPES (Gibco Cat #15630-080) and 0.1% fatty acid free BSA (Sigma Cat #A9205)] to a final concentration of 0.5% DMSO. Diluted compounds were added to the cells by FDSS6000 (Hamamatsu) at final concentrations ranging from 0.08 nM to 5 μM. and were then incubated for 20 min at room temperature at which time LPA (Avanti Polar Lipids Cat #857130C) was added at final concentrations of 10 nM to stimulate the cells. The compound IC50 value was defined as the concentration of test compound which inhibited 50% of the calcium flux induced by LPA alone. IC50 values were determined by fitting data to a 4-parameter logistic equation (GraphPad Prism, San Diego CA).
On the technique in general: Calcium flux is commonly read through the fluorescence of an indicator in the cells.
In general, IC50 refers to the concentration that inhibits the measured activity by half. With `Cc1noc(-c2ccc(O[C@@H]3CC[C@@H](C(=O)O)C3)cc2)c1COC(=O)N(C)C1CCCC1` (racemic) [Example 3, (±)-Trans-3-(4-(4-(((cyclopentyl(methyl)carbamoyl)oxy)methyl)-3-methylisoxazol-5-yl)phenoxy)cyclopentane-1-carboxylic Acid], the IC50 stood at 171 nM.
With `Cc1nc(-c2onc(C)c2COC(=O)N(C)C2CCCC2)ccc1O[C@@H]1CC[C@@H](CC(=O)O)C1` (racemic) [Example 8, (±)-Trans-2-(3-((6-(4-(((cyclopentyl(methyl)carbamoyl)oxy)methyl)-3-methylisoxazol-5-yl)-2-methylpyridin-3-yl)oxy)cyclopentyl)acetic Acid] the figure was 13 nM.
With `CCCC1(COC(=O)NCc2c(-c3ccc(O[C@@H]4CC[C@@H](CC(=O)O)C4)c(C)n3)nnn2C)CC1` (racemic) [Example 9, (±)-Trans-2-(3-((2-methyl-6-(1-methyl-5-(((((1-propylcyclopropyl)methoxy)carbonyl)amino)methyl)-1H-1,2,3-triazol-4-yl)pyridin-3-yl)oxy)cyclopentyl)acetic Acid] the figure was 111 nM.
With `CCCC1(N(C)C(=O)OCc2c(-c3ccc(O[C@@H]4CC[C@@H](CC(=O)O)C4)c(C)n3)nnn2C)CC1` (racemic) [Example 10, (±)-Trans-2-(3-((2-methyl-6-(1-methyl-5-(((methyl(1-propylcyclopropyl)carbamoyl)oxy)methyl)-1H-1,2,3-triazol-4-yl)pyridin-3-yl)oxy)cyclopentyl)acetic Acid] the figure was 372 nM; with `Cc1nc(-c2nnn(C)c2COC(=O)N(C)CC2CCC2)cnc1O[C@@H]1CC[C@@H](C(=O)O)C1` (racemic) [Example 13, (±)-Trans-3-((5-(5-((((cyclobutylmethyl)(methyl)carbamoyl)oxy)methyl)-1-methyl-1H-1,2,3-triazol-4-yl)-3-methylpyrazin-2-yl)oxy)cyclopentanecarboxylic Acid], 618 nM.
As for `Cc1nc(-c2nnn(C)c2COC(=O)N(C)CC2CCCC2)cnc1O[C@@H]1CC[C@@H](C(=O)O)C1` (racemic) [Example 14, (±)-trans-3-((5-(5-((((cyclo-pentylmethyl)(methyl)carbamoyl)oxy)methyl)-1-methyl-1H-1,2,3-triazol-4-yl)-3-methylpyrazin-2-yl)oxy) cyclopentanecarboxylic Acid], the IC50 came to 184 nM.
With `Cc1nc(-c2nnn(C)c2CNC(=O)OCc2ccccc2)cnc1O[C@@H]1CC[C@@H](C(=O)O)C1` (racemic) [Example 15, (±)-Trans-3-((5-(5-((((benzyloxy)carbonyl)amino)methyl)-1-methyl-1H-1,2,3-triazol-4-yl)-3-methylpyrazin-2-yl)oxy)cyclopentanecarboxylic Acid] the figure was 714 nM.
With `Cc1nc(-c2cnn(C)c2COC(=O)N(C)CC2CCC2)cnc1O[C@H]1CC[C@H](C(=O)O)C1` (racemic) [Example 16, (±)-Trans-3-((5-(5-((((cyclobutylmethyl)(methyl)carbamoyl)oxy)methyl)-1-methyl-1H-pyrazol-4-yl)-3-methylpyrazin-2-yl)oxy)cyclopentanecarboxylic Acid] the figure was 202 nM.
As to `Cc1nc(-c2cnn(C)c2CNC(=O)OCc2ccccc2)cnc1O[C@H]1CC[C@H](C(=O)O)C1` (racemic) [Example 18, (±)-Trans-3-((5-(5-((((benzyloxy)carbonyl)amino)methyl)-1-methyl-1H-pyrazol-4-yl)-3-methylpyrazin-2-yl)oxy)cyclopentanecarboxylic Acid], the IC50 worked out at 369 nM.
As to `Cc1nc(-c2nnn(C)c2CNC(=O)OCc2ccccc2)ccc1O[C@@H]1CC[C@@H](C(=O)O)C1` (racemic) [Example 20, (±)-trans-3-((6-(5-((((benzyloxy)carbonyl)amino)methyl)-1-methyl-1H-1,2,3-triazol-4-yl)-2-methyl-pyridin-3-yl)oxy)cyclopentane carboxylic acid], the IC50 worked out at 39.7 nM.
With `Cc1nc(-c2nnn(C)c2COC(=O)N(C)Cc2ccccc2)ccc1O[C@@H]1CC[C@@H](C(=O)O)C1` (racemic) [Example 22, (±)-trans-3-((6-(5-(((benzyl(methyl)carbamoyl)oxy)methyl)-1-methyl-1H-1,2,3-triazol-4-yl)-2-methylpyridin-3-yl)oxy)cyclopentane carboxylic acid] the figure was 182 nM; with `CCCN(C)C(=O)OCc1c(-c2ccc(O[C@@H]3CC[C@@H](C(=O)O)C3)c(C)n2)nnn1C` (racemic) [Example 23, (±)-trans-3-((2-methyl-6-(1-methyl-5-(((methyl(propyl)carbamoyl)oxy)methyl)-1H-1,2,3-triazol-4-yl)pyridin-3-yl)oxy)cyclopentanecarboxylic acid], 2040 nM; with `Cc1nc(-c2nnn(C)c2COC(=O)N(C)CC(C)C)ccc1O[C@@H]1CC[C@@H](C(=O)O)C1` (racemic) [Example 24, (±)-trans-3-((6-(5-(((isobutyl(methyl)carbamoyl)oxy)methyl)-1-methyl-1H-1,2,3-triazol-4-yl)-2-methylpyridin-3-yl)oxy)cyclopentane carboxylic acid], 1160 nM.
With `CN(CC1CCC1)C(=O)OCc1c(-c2ccc(O[C@@H]3CC[C@@H](C(=O)O)C3)cn2)nnn1C` (racemic) [Example 25, (±)-trans-3-((6-(5-((((cyclobutyl-methyl)(methyl)carbamoyl)oxy)methyl)-1-methyl-1H-1,2,3-triazol-4-yl)pyridin-3-yl)oxy)cyclopentane carboxylic acid] the figure was 354 nM; with `Cc1nc(-c2nnn(C)c2COC(=O)N(C)CC2CCC2)cnc1O[C@H]1CC[C@H](CC(=O)O)C1` (racemic) [Example 26, (±)-2-(Trans-3-((5-(5-((((cyclobutylmethyl)(methyl)carbamoyl)oxy)methyl)-1-methyl-1H-1,2,3-triazol-4-yl)-3-methylpyrazin-2-yl)oxy)cyclopentyl)acetic Acid], 371 nM.
With `Cc1noc(-c2ccc(O[C@@H]3CC[C@@H](CC(=O)O)C3)cn2)c1CNc1nccc(-c2ccccn2)n1` (racemic) [Example 29, (±)2-(Trans-3-((6-(3-methyl-4-(((4-(pyridin-2-yl)pyrimidin-2-yl)amino)methyl)isoxazol-5-yl)pyridin-3-yl)oxy)cyclopentyl)acetic Acid] the figure was 54 nM; with `Cc1nc(-c2nnn(C)c2COC(=O)N(C)CC2CCC2)ccc1OC[C@@H]1CC[C@H](C(=O)O)C1` (racemic) [Example 30, (±)-Cis-3-(((6-(5-((((cyclobutylmethyl)(methyl)carbamoyl)oxy)methyl)-1-methyl-1H-1,2,3-triazol-4-yl)-2-methylpyridin-3-yl)oxy)methyl)cyclopentane-1-carboxylic Acid], 21 nM; with `Cc1nc(-c2onc(C)c2COC(=O)N(C)C2CCCC2)ccc1O[C@H]1CC[C@@H](CC(=O)O)C1` (racemic) [Example 47, (±)-cis-2-[3-({6-[4-({[cyclopentyl(methyl)carbamoyl]oxy}methyl)-3-methyl-1,2-oxazol-5-yl]-2-methyl-pyridin-3-yl}oxy)cyclopentyl]acetic acid], 25 nM.
Take `Cc1nc(-c2nnn(C)c2COC(=O)N(C)CC2CCC2)ccc1O[C@H]1CC[C@@H](CC(=O)O)C1` (racemic) [Example 48, (±)-cis-2-[3-({6-[5-({[(cyclobutyl-methyl)(methyl)carbamoyl]oxy}methyl)-1-methyl-1H-1,2,3-triazol-4-yl]-2-methylpyridin-3-yl}oxy)cyclopentyl]acetic acid]: the IC50 came out at 40 nM.
The same measure for `Cc1nc(-c2onc(C)c2COC(=O)N(C)C2CCCC2)ccc1O[C@H]1CC[C@H](C(C)C(=O)O)C1` (mixture of isomers) [Example 50, (±)-trans-2-[3-({6-[4-({[cyclopentyl(methyl)carbamoyl]oxy}methyl)-3-methyl-1,2-oxazol-5-yl]-2-methyl-pyridin-3-yl}oxy)cyclopentyl]propanoic acid]: 20 nM; for `Cc1nc(-c2onc(C)c2COC(=O)N(C)C2CCCC2)ccc1O[C@H]1CC[C@H](C(C)C(=O)O)C1` (mixture of isomers) [Example 51, (±)-trans-2-[3-({6-[4-({[cyclopentyl(methyl)carbamoyl]oxy}methyl)-3-methyl-1,2-oxazol-5-yl]-2-methyl-pyridin-3-yl}oxy)cyclopentyl]propanoic acid]: 24 nM; for `Cc1nc(-c2onc(C)c2COC(=O)N(C)C2CCCC2)ccc1O[C@H]1CC[C@H](C(C)(C)C(=O)O)C1` (racemic) [Example 52, (±)-trans-2-[3-({6-[4-({[cyclopentyl(methyl)carbamoyl]oxy}methyl)-3-methyl-1,2-oxazol-5-yl]-2-methyl-pyridin-3-yl}oxy)cyclopentyl]-2-methylpropanoic acid]: 8 nM.
The same measure for `Cc1nc(-c2nnn(C)c2COC(=O)N(C)CC2CCC2)ccc1O[C@H]1CC[C@H](C2(C(=O)O)CC2)C1` (racemic) [Example 53, (±)-trans-1-[3-({6-[5-({[(cyclobutyl-methyl)(methyl)carbamoyl]oxy}methyl)-1-methyl-1H-1,2,3-triazol-4-yl]-2-methylpyridin-3-yl}oxy)cyclo-pentyl]cyclopropane-1-carboxylic acid]: 14 nM.
